# In patent US8309537B2, “Compositions and methods for treating colitis” (Aerpio Therapeutics Inc., priority 2009, dated 2012):
# Structures can show the parent of a compound that is named as a salt. Where two headings read alike, the source gives them in different places.
# Assays:
# [1] = Solubility of salts in distilled deionized water (HPLC); type: physicochemical
# Experimental: The formulator can determine the solubility of the pharmaceutically acceptable salts of the disclosed inhibitors by any method desirable. The following is a non-limiting example of a procedure for evaluating the solubility of a salt of a disclosed inhibitor. A suspension of tert-butyl-{[1-(4-chlorobenzyl)-3-hydroxy-2-oxo-1,2-dihydropyridin-4-yl]methyl}-piperazine-1-carboxylate methanesulfonate (26.6 mg) in distilled deionized water (3.0 mL) is sonicated for 20 min with water bath temperature under 25° C. The suspension is filtered to remove any insoluble salt. The clear filtrate solution (200 μL) is diluted with distilled deionized water (800 μL) and subjected to HPLC analysis. The following are results for the pharmaceutically acceptable salts outlined in Table VII above.
# [2] = test system: Mouse Colon 26 tumor cells; assay: Xenograft model: Mouse Colon 26 carcinoma in nude mice; type: in vivo; conditions: Group 1: 5-FU 10 mg/kg IV once daily for five days alone; Day 27
# Experimental: Xenograft Model: Mouse Colon 26 Carcinoma
# Nude mice (Harlan Sprague Dawley, Inc., Indianapolis Ind.) were inoculated subcutaneously in the right flank with 0.1 mL of a 0.9% NaCl mixture containing a suspension of Mouse Colon 26 tumor cells (approx. 1×10^6 cells/mouse). Nine days following inoculation, the resulting tumors were measured using vernier calipers and tumor weight was calculated using the formula:
# [formula] wherein the width can be taken as the smallest diameter and the length the largest diameter of the tumor. Twenty-four mice having tumors in the range of 75-144 mg were then selected. The mice were randomized into three groups of eight mice each. The body weight of each animal was at taken when the mice were pair-matched on day one and recorded. Body weights were then taken twice weekly thereafter in conjunction with tumor measurements. See Britten C. D. et al., “Enhanced antitumor activity of 6-hydroxymethyl-acylfulvene in combination with irinotecan and 5-fluorouracil in the HT29 human colon tumor xenograft model.” Cancer Res 1999; 59:1049-53, incorporated by reference herein in its entirety.
# Beginning on Day 1, 5-fluorouracil (5-FU) was administered intravenously once daily for five days to each animal (Groups 1-3). […] The actual weight of each tumor was recorded.
SMILES,Solubility [1] [µg/mL],further results
"CC(C)(C)OC(=O)N1CCN(Cc2ccn(Cc3ccc(Cl)cc3)c(=O)c2O)CC1 [Compound A41, tert-Butyl-{[1-(4-chlorobenzyl)-3-hydroxy-2-oxo-1,2-dihydropyridin-4-yl]methyl}piperazine-1-carboxylate]",,"Solubility ([1]; distilled deionized water, sonicated 20 min, bath under 25° C., filtrate by HPLC, listed as Free base): ~1 µg/mL"
"O=c1[nH]cc(F)c(=O)[nH]1 [Compound 5-FU, 5-fluorouracil]",,Tumor Wgt. [2]: 1926.9 ± 284.9 mg
"CC(C)(C)OC(=O)N1CCN(Cc2ccn(Cc3ccc(Cl)cc3)c(=O)c2O)CC1 [p-toluenesulfonate, tert-butyl-{[1-(4-chlorobenzyl)-3-hydroxy-2-oxo-1,2-dihydropyridin-4-yl]methyl}-piperazine-1-carboxylate]",2300,
"CC(C)(C)OC(=O)N1CCN(Cc2ccn(Cc3ccc(Cl)cc3)c(=O)c2O)CC1 [hydrochloride, tert-butyl-{[1-(4-chlorobenzyl)-3-hydroxy-2-oxo-1,2-dihydropyridin-4-yl]methyl}-piperazine-1-carboxylate]",5900,
